Results as given in ChEMBL document CHEMBL1139045, “Design and synthesis of a novel class of dual PPARgamma/delta agonists” (Bioorg Med Chem Lett, 2007).
pEC50, pIC50: −log10 of the molar value.

How the values were obtained:
[1] = biological target: T1, Peroxisome proliferator-activated receptor alpha (Homo sapiens, UniProt Q07869); assay type: functional, cell-based, CV-1
T1 sequence (Q07869 whole entry): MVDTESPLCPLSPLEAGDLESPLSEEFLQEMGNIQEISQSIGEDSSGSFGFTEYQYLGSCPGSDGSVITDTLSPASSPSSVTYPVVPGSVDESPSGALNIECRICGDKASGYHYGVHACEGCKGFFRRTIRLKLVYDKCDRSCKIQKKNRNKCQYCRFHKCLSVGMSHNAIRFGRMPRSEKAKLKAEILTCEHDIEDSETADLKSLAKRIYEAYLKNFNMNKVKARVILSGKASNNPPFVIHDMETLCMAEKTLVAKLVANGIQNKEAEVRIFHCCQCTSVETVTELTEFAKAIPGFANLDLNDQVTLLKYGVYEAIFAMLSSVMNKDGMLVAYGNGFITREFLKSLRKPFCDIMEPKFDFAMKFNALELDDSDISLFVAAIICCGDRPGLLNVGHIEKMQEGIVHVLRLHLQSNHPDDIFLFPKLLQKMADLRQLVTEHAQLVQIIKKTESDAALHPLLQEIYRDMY

[2] = biological target: T1, Peroxisome proliferator-activated receptor alpha
in vivo [3] = conditions: Sprague-Dawley, rat, po, 12 mg/kg
in vivo [4] = conditions: Sprague-Dawley, rat, po, 12 mg/kg; remark: listed apart in the source
in vivo [5] = conditions: Sprague-Dawley, rat, po, 12 mg/kg; remark: listed apart in the source
[6] = biological target: T2, Peroxisome proliferator-activated receptor delta (Homo sapiens, UniProt Q03181)
T2 sequence (Q03181 whole entry): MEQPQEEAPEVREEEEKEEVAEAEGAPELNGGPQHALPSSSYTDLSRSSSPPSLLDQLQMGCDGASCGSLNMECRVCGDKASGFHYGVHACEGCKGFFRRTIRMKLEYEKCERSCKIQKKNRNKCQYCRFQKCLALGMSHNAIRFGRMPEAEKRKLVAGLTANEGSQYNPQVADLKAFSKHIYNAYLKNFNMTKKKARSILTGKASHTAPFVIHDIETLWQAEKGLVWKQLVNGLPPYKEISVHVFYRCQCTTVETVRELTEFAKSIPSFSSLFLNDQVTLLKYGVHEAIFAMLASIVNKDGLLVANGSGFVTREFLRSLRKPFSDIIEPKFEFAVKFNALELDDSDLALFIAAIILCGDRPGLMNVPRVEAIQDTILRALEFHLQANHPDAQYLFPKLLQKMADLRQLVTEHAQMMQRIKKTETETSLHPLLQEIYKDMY

in vivo [7] = conditions: Sprague-Dawley, rat, iv, 1 mg/kg
[8] = biological target: T2, Peroxisome proliferator-activated receptor delta; assay type: functional, cell-based, CV-1
in vivo [9] = conditions: db/db, mouse

Structure (SMILES) | pEC50 [1] | pIC50 [2] | pIC50 [6] | pEC50 [8] | also measured
CCc1ccc(O[C@H](C)CCOc2ccc(CCC(=O)O)c(C)c2)c(-c2ncco2)c1 | 5.54 | 4.98 |  |  | 
CCc1ccc(O[C@H](C)CCOc2ccc(CCC(=O)O)c(C)c2)c(-c2ccco2)c1 | 5.55 | 5.35 |  |  | 
CCc1ccc(O[C@H](C)CCOc2ccc(CCC(=O)O)c(C)c2)c(-c2ccsc2)c1 |  | 5.23 |  |  | 
CCc1ccc(O[C@H](C)CCOc2ccc(CCC(=O)O)c(C)c2)c(-c2cccnc2)c1 | 5.54 |  |  |  | 
CCc1ccc(O[C@H](C)CCOc2ccc(CCC(=O)O)c(C)c2)c(-c2cscn2)c1 | 5.57 | 5.39 |  |  | 
CCc1ccc(O[C@H](C)CCOc2ccc(CCC(=O)O)c(C)c2)c(-c2cocn2)c1 | 5.55 | 5.30 |  |  | 

The next lines start with results.

pEC50 [1] | pIC50 [2] | pIC50 [6] | pEC50 [8] | Structure (SMILES) | also measured
 | 5.13 | 8.52 | 8.15 | CCc1ccc(O[C@H](C)CCOc2ccc(CCC(=O)O)c(CC)c2)c(-c2ccccn2)c1 | half-life (in vivo [3]): 3 h; bioavailability (in vivo [4]): 71%; AUC (in vivo [5]): 75500 ng·h/mL; clearance (in vivo [7]): 1.9 mL/min/kg
5.58 | 5.22 | 8.52 | 8.22 | CCc1cc(OCC[C@@H](C)Oc2ccc(C(F)(F)F)cc2-c2ccccn2)ccc1CCC(=O)O | concentration at 1 h (in vivo [9]): 4200 ng/mL
5.63 | 5.23 | 8.40 | 8.22 | Cc1cc(OCC[C@@H](C)Oc2ccc(C(F)(F)F)cc2-c2ccccn2)ccc1CCC(=O)O | 
